From patent US20250017922A1, “BIFUNCTIONAL COMPOUNDS FOR DEGRADING BTK WITH ENHANCED IMID ACTIVITY” (NURIX THERAPEUTICS, INC., priority 2021, published 2025)

Assays:
[1] = biological target: T1, Aiolos (Homo sapiens, UniProt Q96SW2+Q9UKT9); experiment: Aiolos degradation in human PBMCs, flow cytometry (IMiD activity); format: cell-based; conditions: 24 hours; for DC50: Aiolos degradation; for Dmax: read-out: Dmax (maximum percent Aiolos degradation)
T1 construct: endogenous in cells; host or cells: human PBMCs (CD20+CD3- B cells, CD3+CD20- T cells)
T1 sequence (Q9UKT9 whole entry): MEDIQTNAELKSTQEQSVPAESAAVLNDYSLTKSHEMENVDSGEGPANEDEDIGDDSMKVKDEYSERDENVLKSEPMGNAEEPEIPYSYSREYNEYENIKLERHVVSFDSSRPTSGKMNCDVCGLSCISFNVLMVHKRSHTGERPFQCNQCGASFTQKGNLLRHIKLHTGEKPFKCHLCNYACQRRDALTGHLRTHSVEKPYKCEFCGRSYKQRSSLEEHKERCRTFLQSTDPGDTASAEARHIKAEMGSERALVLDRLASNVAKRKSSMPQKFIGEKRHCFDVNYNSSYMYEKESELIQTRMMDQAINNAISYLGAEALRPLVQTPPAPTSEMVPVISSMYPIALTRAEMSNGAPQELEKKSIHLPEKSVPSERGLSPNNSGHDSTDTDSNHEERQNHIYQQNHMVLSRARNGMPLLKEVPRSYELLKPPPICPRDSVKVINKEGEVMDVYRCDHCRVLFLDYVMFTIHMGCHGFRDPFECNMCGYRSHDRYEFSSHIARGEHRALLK
T1 sequence (Q96SW2 whole entry): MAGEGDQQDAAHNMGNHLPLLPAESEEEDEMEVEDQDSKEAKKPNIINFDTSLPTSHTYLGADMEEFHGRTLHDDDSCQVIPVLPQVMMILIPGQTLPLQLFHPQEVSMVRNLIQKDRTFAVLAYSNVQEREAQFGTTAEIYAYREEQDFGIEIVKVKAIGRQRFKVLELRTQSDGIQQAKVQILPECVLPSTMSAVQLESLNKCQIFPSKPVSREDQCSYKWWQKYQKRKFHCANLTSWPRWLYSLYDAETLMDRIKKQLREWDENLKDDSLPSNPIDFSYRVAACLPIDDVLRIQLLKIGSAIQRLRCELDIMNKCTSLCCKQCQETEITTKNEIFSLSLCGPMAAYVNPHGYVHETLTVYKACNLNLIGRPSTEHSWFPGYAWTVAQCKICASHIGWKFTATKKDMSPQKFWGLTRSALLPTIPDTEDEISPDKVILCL
T1 sequence (Q16531 whole entry partner): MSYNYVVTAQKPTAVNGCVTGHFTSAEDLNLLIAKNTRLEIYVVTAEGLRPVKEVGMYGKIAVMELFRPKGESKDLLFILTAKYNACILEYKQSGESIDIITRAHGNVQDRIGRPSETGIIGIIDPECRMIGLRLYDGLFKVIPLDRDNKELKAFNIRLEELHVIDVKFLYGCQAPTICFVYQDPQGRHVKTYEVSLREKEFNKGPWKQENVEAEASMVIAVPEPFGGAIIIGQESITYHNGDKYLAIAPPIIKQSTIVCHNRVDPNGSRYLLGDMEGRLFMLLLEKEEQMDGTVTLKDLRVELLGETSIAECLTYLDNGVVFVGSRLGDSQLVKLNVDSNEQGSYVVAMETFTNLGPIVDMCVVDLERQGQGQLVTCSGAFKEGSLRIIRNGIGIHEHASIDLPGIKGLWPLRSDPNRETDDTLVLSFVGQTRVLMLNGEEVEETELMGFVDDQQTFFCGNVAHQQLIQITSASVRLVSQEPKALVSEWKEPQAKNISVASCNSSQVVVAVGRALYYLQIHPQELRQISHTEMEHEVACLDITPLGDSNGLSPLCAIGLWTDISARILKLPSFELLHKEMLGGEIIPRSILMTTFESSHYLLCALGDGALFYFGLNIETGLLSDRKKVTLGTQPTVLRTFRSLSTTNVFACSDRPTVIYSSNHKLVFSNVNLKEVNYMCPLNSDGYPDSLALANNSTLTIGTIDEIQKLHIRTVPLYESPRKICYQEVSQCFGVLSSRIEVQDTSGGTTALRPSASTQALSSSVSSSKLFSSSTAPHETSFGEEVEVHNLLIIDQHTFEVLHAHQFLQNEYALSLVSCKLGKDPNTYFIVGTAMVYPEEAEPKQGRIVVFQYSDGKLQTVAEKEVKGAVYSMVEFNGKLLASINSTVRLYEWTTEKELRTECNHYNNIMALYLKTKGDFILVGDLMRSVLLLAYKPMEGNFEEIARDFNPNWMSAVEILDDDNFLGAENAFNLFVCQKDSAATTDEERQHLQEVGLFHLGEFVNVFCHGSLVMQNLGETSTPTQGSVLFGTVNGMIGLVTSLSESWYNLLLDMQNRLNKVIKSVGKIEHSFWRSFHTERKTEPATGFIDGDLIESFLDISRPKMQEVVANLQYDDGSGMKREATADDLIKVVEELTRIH
Protocol: Frozen human peripheral blood mononuclear cells (PBMCs) were thawed and treated with DMSO or compound for 24 hours and then fixed and permeabilized using a Foxp3/Transcription Factor Fixation/Permeabilization Kit (eBioscience, 00-5523). Cells were stained with fluorophore-conjugated antibodies against CD20 (Biolegend 302330), CD3 (BD Pharmingen 552127), and Aiolos (Biolegend 371106). An additional set of DMSO-treated PBMCs was stained for CD20, CD3, and an AlexaFluor 647-conjugated mouse IgG1 isotype control antibody (Biolegend 400136). Stained cells were run on an Attune NxT Acoustic Focusing Flow Cytometer (Thermo-Fisher A29004), and data was analyzed using FlowJo (v10.5.3) and GraphPad Prism (v7.00) software. Single lymphocytes were gated for B cells (CD20+CD3−) and T cells (CD3+CD20−), and the geometric mean fluorescence intensity (MFI) of Aiolos was calculated for each population. The MFI of the isotype control was calculated for each population and used to quantify background staining. Percent Aiolos degradation was calculated for each compound-treated sample using the following equation: […]
DC50 is the compound concentration degrading […] of Aiolos. Dmax is the maximum percent Aiolos degradation in the assay.

[2] = tested on: arthritis; experiment: Arthritis model, clinical arthritis score and body weight; format: in vivo, mice; conditions: daily oral treatment at 30 mg/kg, compared to dexamethasone and vehicle
Protocol: Significance of clinical arthritis score (A) was determined from the area under the curve (AUC) of mean paw scores calculated for individual mice. (C) Serum levels of anti-type II collagen IgG. Statistical significance was determined between vehicle control and treated groups with one-way Kruskal-Wallis ANOVA and Dunn's multiple comparisons test.

[3] = biological target: T2, BTK (Homo sapiens, UniProt Q06187); experiment: BTK degradation and anti-tumor activity in preclinical models; format: in vivo
T2 construct: host or cells: preclinical models (not described)
T2 sequence (Q06187 whole entry, species assumed): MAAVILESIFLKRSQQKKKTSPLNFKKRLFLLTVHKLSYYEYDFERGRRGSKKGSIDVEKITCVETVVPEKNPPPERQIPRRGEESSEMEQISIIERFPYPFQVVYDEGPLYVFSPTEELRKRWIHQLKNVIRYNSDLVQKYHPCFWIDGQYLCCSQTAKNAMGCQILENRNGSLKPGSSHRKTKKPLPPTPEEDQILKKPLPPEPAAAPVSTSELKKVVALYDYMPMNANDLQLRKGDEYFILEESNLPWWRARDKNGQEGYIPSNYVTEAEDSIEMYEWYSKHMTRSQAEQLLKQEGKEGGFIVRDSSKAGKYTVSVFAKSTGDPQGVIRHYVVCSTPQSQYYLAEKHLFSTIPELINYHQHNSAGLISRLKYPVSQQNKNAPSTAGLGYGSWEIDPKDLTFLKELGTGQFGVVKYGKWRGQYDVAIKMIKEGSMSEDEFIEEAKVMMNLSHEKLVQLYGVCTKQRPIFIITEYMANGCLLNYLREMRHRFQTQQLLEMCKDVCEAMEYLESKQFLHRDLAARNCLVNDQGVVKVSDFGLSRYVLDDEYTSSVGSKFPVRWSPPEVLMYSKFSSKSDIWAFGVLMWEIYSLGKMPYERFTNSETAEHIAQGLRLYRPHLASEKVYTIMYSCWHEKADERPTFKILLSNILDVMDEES

[4] = biological target: T3, Ikaros (Homo sapiens, UniProt Q13422+Q96SW2); experiment: Ikaros degradation in patient PBMCs, Western blot (Jess Simple Western); format: in vivo; conditions: Cycle 1 Day 8
T3 construct: from tissue; host or cells: patient PBMCs, lysed after in vivo dosing
T3 sequence (Q13422 whole entry): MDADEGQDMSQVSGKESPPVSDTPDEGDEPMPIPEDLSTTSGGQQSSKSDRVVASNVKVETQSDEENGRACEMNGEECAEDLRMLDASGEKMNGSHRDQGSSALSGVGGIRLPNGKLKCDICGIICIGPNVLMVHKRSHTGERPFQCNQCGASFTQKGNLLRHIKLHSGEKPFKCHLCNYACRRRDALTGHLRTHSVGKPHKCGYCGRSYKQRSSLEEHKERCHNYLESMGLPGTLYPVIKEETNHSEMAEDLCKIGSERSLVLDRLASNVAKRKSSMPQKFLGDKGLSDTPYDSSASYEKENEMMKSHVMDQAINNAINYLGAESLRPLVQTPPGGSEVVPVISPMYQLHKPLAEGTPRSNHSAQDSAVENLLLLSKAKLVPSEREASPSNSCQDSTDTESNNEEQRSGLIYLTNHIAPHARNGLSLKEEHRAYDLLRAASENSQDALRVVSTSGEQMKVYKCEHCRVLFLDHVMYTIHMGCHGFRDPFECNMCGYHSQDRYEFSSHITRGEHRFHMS
T3 sequence (Q96SW2 whole entry): as the sequence (Q96SW2 whole entry) above
T3 sequence (Q16531 whole entry partner): as the sequence (Q16531 whole entry partner) above
Protocol: Frozen patient PBMCs collected at baseline and at Cycle 1 Day 8 were processed into protein lysate and degradation of cereblon neo-substrate Ikaros was determined using Western blot via Jess™ Simple Western automated system. […] Patients receiving 300 mg Compound 5, 75.2-95.7% Ikaros degradation was detected.
Frozen PBMCs from patients were prepared and Ikaros protein levels were assessed using Western blot via Jess™ Simple Western automated system.
FIG. 7A, densitometric analysis of Ikaros degradation in all patients were obtained after normalization to β-actin and % Ikaros degradation was calculated relative to Baseline values from each patient.
For Ikaros degradation assessment, patient PBMCs were lysed in lysis buffer RIPA buffer (Fisher, PI89901), complete Mini EDTA-free protease inhibitor (Sigma 11836170001), Protease Inhibitor Cocktail (Sigma, P2714) and Phosphatase Inhibitor Cocktail 2 and 3 (Sigma, P5726 and P0044) and stored overnight at −80° C. Cells were then thawed and centrifuged for 5 min at 8000×g and lysate supernatants were transferred to a fresh tube. Protein levels were determined by BCA Assay performed according to manufacturer's protocol (EMD Millipore, cat. no. 71285-3). A total of 3 μg protein was loaded and 1:50 dilution of primary anti-Ikaros (Cell Signaling Technology, cat. 14859) and 1:50 anti-β-Actin (Cell Signaling Technology, cat. 8457) was used. […]

DC50 [1] [nM] | Dmax [1] [%] | BTK degradation [3] [%] | Ikaros degradation ([4]; patients receiving 300 mg) | Ikaros degradation ([4]; patients receiving either 100 or 200 mg) | Structure (SMILES) | body weight loss [2]
5.2 | 94.7 |  |  |  | NC(=O)c1ncc(N2CCCCC2)nc1Nc1ccc2c(c1)CCN(C1CN(c3ccc4c(c3)C(=O)N(C3CCC(=O)NC3=O)C4=O)C1)C2 (racemic) [Compound 2, rac-3-{[2-(1-{2-[(3R)-2,6-dioxopiperidin-3-yl]-1,3-dioxoisoindol-5-yl}azetidin-3-yl)-3,4-dihydro-1H-isoquinolin-6-yl]amino}-5-(piperidin-1-yl)pyrazine-2-carboxamide] | 
27 | 77.4 |  |  |  | NC(=O)c1ncc(N2CCCCC2)nc1Nc1ccc2c(c1)CCN(C[C@H]1CCN(c3ccc4c(c3)C(=O)N(C3CCC(=O)NC3=O)C4=O)C1)C2 (stereo partly drawn) [Compound 1] | 
93 | 84.9 |  |  |  | CN1CCN([C@@H]2CCCN(c3cnc(C(N)=O)c(Nc4ccc(C5CCN(C[C@H]6CC[C@H](Nc7cccc8c7C(=O)N(C7CCC(=O)NC7=O)C8=O)CC6)CC5)cc4)n3)C2)C1=O (stereo partly drawn) [Compound 3] | 
8 | 87 |  |  |  | CN1CCN([C@@H]2CCCN(c3cnc(C(N)=O)c(Nc4ccc(C5CCN(CCCNc6cccc7c6C(=O)N(C6CCC(=O)NC6=O)C7=O)CC5)cc4)n3)C2)C1=O (stereo partly drawn) [Compound 4] | 
22 | 89.1 | ≥ 80 | 75.2-95.7% | 26.1-60.5% | NC(=O)c1ncc(N2CCCCC2)nc1Nc1ccc(C2CCN(C[C@@H]3CCN(c4ccc5c(c4)C(=O)N(C4CCC(=O)NC4=O)C5=O)C3)CC2)cc1 (stereo partly drawn) [Compound 5] | minimal body weight loss
23 | 70.8 |  |  |  | CN1CCN([C@H]2CCCN(c3cnc(C(N)=O)c(Nc4cnn(C5CCN(CC6CN(c7ccc8c(c7)C(=O)N(C7CCC(=O)NC7=O)C8=O)C6)CC5)c4)n3)C2)C1=O (stereo partly drawn) [Compound 6] | 
4 | 98.2 |  |  |  | CN1CCN([C@H]2CCCN(c3cnc(C(N)=O)c(Nc4ccc5c(c4)CCN(CC4CN(c6ccc7c(c6)C(=O)N(C6CCC(=O)NC6=O)C7=O)C4)C5)n3)C2)C1=O (stereo partly drawn) [Compound 7] | 
1 | 98.4 |  |  |  | CN1CCN([C@@H]2CCCN(c3cnc(C(N)=O)c(Nc4ccc5c(c4)CCN(C4CN(c6ccc7c(c6)C(=O)N(C6CCC(=O)NC6=O)C7=O)C4)C5)n3)C2)C1=O (stereo partly drawn) [Compound 8] | 
12 | 86.5 |  |  |  | CN1CCN([C@@H]2CCCN(c3cnc(C(N)=O)c(Nc4ccc5c(c4)CCN(CC4CCN(c6ccc7c(c6)C(=O)N(C6CCC(=O)NC6=O)C7=O)CC4)C5)n3)C2)C1=O (stereo partly drawn) [Compound 9] | 
9 | 83.1 |  |  |  | CN1CCN([C@@H]2CCCN(c3cnc(C(N)=O)c(Nc4ccc(N5CC6(C5)CN(c5ccc7c(c5)C(=O)N(C5CCC(=O)NC5=O)C7=O)C6)cc4)n3)C2)C1=O (stereo partly drawn) [Compound 10] | 
20 | 78.7 |  |  |  | CN1CCN([C@@H]2CCCN(c3cnc(C(N)=O)c(Nc4ccc(C5CN(C6CCN(c7ccc8c(c7)C(=O)N(C7CCC(=O)NC7=O)C8=O)CC6)C5)cc4)n3)C2)C1=O (stereo partly drawn) [Compound 11] | 
7 | 65.1 |  |  |  | CN1CCN([C@@H]2CCCN(c3cnc(C(N)=O)c(Nc4ccc(N5CCN(C[C@@H]6[C@H]7CN(c8ccc9c(c8)C(=O)N(C8CCC(=O)NC8=O)C9=O)C[C@@H]67)CC5)cc4)n3)C2)C1=O (stereo partly drawn) [Compound 12] | 
33 | 73.9 |  |  |  | CN1CCN([C@@H]2CCCN(c3cnc(C(N)=O)c(Nc4ccc(C5CCN(C[C@H]6CCN(c7ccc8c(c7)C(=O)N(C7CCC(=O)NC7=O)C8=O)C6)CC5)cc4)n3)C2)C1=O (stereo partly drawn) [Compound 13] | 
11 | 74 |  |  |  | CN1CCN([C@@H]2CCCN(c3cnc(C(N)=O)c(Nc4ccc(C5CCN(CC6CCN(c7ccc8c(c7)C(=O)N(C7CCC(=O)NC7=O)C8=O)CC6)CC5)cc4)n3)C2)C1=O (stereo partly drawn) [Compound 14] | 
17 | 74.7 |  |  |  | CN1CCN([C@@H]2CCCN(c3cnc(C(N)=O)c(Nc4ccc(C5CCN(C6CN(c7ccc8c(c7)C(=O)N(C7CCC(=O)NC7=O)C8=O)C6)CC5)cc4)n3)C2)C1=O (stereo partly drawn) [Compound 15] | 
24 | 95.7 |  |  |  | CN1CCN([C@@H]2CCCN(c3cnc(C(N)=O)c(Nc4ccc(OCCCNc5ccc6c(c5)C(=O)N(C5CCC(=O)NC5=O)C6=O)cc4)n3)C2)C1=O (stereo partly drawn) [Compound 16] | 
560 | 51.9 |  |  |  | CN1CCN([C@@H]2CCCN(c3cnc(C(N)=O)c(Nc4ccc(C5(C)CCN(C(=O)CCOCCC(=O)Nc6cccc7c6CN(C6CCC(=O)NC6=O)C7=O)CC5)cc4)n3)C2)C1=O (stereo partly drawn) [Compound 17] | 
9 | 81.6 |  |  |  | CN1CCN([C@@H]2CCCN(c3cnc(C(N)=O)c(Nc4ccc(N5CCN(CCCCc6cccc7c6CN(C6CCC(=O)NC6=O)C7=O)CC5)cc4)n3)C2)C1=O (stereo partly drawn) [Compound 18] | 
1 | 98.6 |  |  |  | CN1CCN([C@@H]2CCCN(c3cnc(C(N)=O)c(Nc4ccc(C5CCN(C(=O)CCOCCNc6cccc7c6C(=O)N(C6CCC(=O)NC6=O)C7=O)CC5)cc4)n3)C2)C1=O (stereo partly drawn) [Compound 19] | 
